According to US20090264433A1, “Compounds, Compositions and Methods Comprising Triazine Derivatives” (Institute for OneWorld Health, priority 2008, published 2009):
Where a name gives a salt, the structure may show the parent alone.

Target: T1, CFTR channel in human colonic T84 cells (Homo sapiens, UniProt P13569)
T1 construct: results in the phosphorylation and opening of CFTR anion channels; host or cells: human colonic T84 cells
Test: T84 assay (FLIPR membrane potential dye, forskolin/IBMX-stimulated CFTR)
Format: cell-based
Conditions: average of at least 2 runs unless annotated n = 1
Procedure: (§1) For example, Human colonic T84 cells can be acquired from the European Collection of Cell Cultures (ECACC) and grown in standard culture conditions as described by the supplier. On the day before assay 25,000 T84 cells per well are plated into standard black walled, clear bottom 384-well assay plates in standard growth medium consisting of DMEM:F12 with 10% FBS and incubated overnight. On the day of the assay the plates are washed using a standard assay buffer (HBSS with 10 mM Hepes) and incubated for 15 minutes in serum free cell culture medium before the addition of a commercially available membrane potential sensitive fluorescent dye (FLIPR Red membrane potential dye, Molecular Devices Corporation). T84 cells are incubated with the FLIPR Red membrane potential dye for 45 minutes in the presence and absence of test compound before being transferred to a commercially available fluorescence imaging plate reader (FLIPR384, Molecular Devices Corporation). Fluorescence levels are monitored continuously every second for 150 seconds; after an initial 10 second baseline, CFTR channel activity is stimulated through the addition of 10 μM forskolin in the presence of 100 μM of the phosphodiesterase inhibitor iso-butyl-methylxanthine (IBMX). Addition of the forskolin leads to the activation of intracellular adenylyl cylase 1, elevating cAMP levels and results in the phosphorylation and opening of CFTR anion channels. CFTR channel opening causes chloride ion efflux and subsequent depolarization of the cells, which is measured by an increase in fluorescence. CFTR inhibitor compounds prevent cell depolarization and the associated increase in fluorescence.
as §1, with “Human colonic” for “For example, Human colonic”, “T84 cells are acquired from” for “T84 cells can be acquired from”, “(ECACC) and are grown in” for “(ECACC) and grown in”

T1 sequence (P13569 whole entry): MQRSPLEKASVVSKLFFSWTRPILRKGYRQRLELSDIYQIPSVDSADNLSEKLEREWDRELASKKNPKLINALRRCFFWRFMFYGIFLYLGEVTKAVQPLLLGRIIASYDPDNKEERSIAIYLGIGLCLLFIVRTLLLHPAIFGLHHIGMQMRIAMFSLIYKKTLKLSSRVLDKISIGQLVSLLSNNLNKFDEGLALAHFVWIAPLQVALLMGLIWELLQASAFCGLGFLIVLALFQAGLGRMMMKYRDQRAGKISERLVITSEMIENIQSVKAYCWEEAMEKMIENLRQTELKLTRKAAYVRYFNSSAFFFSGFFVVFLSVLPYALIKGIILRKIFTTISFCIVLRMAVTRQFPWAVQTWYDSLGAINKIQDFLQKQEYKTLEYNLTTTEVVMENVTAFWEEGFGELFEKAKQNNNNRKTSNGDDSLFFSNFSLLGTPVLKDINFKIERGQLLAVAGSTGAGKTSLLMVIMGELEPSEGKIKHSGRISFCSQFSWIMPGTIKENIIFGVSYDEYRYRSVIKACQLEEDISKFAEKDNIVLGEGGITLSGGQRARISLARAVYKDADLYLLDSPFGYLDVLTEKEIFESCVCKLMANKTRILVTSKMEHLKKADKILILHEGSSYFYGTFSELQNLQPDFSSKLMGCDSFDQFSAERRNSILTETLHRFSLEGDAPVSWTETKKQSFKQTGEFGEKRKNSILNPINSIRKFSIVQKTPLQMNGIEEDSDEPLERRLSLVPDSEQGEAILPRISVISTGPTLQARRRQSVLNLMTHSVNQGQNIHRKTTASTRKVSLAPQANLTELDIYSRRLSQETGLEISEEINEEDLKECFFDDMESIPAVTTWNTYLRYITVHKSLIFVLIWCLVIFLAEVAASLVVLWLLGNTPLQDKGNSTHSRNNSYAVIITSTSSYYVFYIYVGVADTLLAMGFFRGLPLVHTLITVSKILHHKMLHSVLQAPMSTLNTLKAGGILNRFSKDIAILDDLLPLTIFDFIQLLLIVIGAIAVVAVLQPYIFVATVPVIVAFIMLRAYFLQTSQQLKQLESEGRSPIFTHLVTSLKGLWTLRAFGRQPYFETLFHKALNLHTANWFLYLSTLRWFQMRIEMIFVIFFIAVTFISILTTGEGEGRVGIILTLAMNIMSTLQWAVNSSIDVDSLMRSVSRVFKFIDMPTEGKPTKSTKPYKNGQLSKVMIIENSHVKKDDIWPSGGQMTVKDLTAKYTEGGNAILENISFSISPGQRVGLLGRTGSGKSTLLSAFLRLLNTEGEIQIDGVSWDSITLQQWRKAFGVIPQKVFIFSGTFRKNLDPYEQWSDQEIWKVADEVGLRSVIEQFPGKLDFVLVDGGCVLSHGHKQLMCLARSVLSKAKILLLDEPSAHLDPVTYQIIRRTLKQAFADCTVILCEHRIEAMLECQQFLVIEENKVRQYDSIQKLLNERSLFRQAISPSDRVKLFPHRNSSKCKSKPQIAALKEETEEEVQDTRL

Structure (SMILES) | IC50 [µM]
CC(C)(C)OC(=O)N1CCC(COc2ncc(-c3cc(Cl)c(O)c(Cl)c3)nn2)(c2ccccc2)CC1 [Compound 139, tert-butyl 4-((6-(3,5-dichloro-4-hydroxyphenyl)-1,2,4-triazin-3-yloxy)methyl)-4-phenylpiperidine-1-carboxylate] | 3.04
Oc1c(Cl)cc(-c2cnc(OCCNCc3ccccc3)nn2)cc1Cl [Compound 124, 4-(3-(2-(benzylamino)ethoxy)-1,2,4-triazin-6-yl)-2,6-dichlorophenol] | 1.98
Oc1c(Br)cc(-c2cnc(OCc3ccccc3Cl)nn2)cc1Br [Compound 18, 2,6-dibromo-4-(3-(2-chlorobenzyloxy)-1,2,4-triazin-6-yl)phenol] | 1.18
Oc1c(Br)cc(-c2cnc(C(O)(c3ccccc3)c3ccccc3)nn2)cc1Br [Compound 32, 2,6-dibromo-4-(3-(hydroxydiphenylmethyl)-1,2,4-triazin-6-yl)phenol] | 4.93
Cc1ccc(C(C)C)c(OCc2ncc(-c3cc(Br)c(O)c(Br)c3)nn2)c1 [Compound 57, 2,6-dibromo-4-(3-((2-isopropyl-5-methylphenoxy)methyl)-1,2,4-triazin-6-yl)phenol] | 26.8
Oc1c(Br)cc(-c2cnc(OCc3ccccc3Br)nn2)cc1Br [Compound 6, 2,6-dibromo-4-(3-(2-bromobenzyloxy)-1,2,4-triazin-6-yl)phenol] | 0.7
Oc1c(Br)cc(-c2cnc(Oc3ccc(Cl)c(Cl)c3)nn2)cc1Br [Compound 21, 2,6-dibromo-4-(3-(3,4-dichlorophenoxy)-1,2,4-triazin-6-yl)phenol] | 2.12
Oc1c(Br)cc(-c2cnc(OCc3ccc(C(F)(F)F)cc3)nn2)cc1Br [Compound 16, 2,6-dibromo-4-(3-(4-(trifluoromethyl)benzyloxy)-1,2,4-triazin-6-yl)phenol] | 1.07
CC(Oc1ncc(-c2cc(Br)c(O)c(Br)c2)nn1)c1ccc(Cl)cc1 (stereo not drawn) [Compound 11, 2,6-dibromo-4-(3-(1-(4-chlorophenyl)ethoxy)-1,2,4-triazin-6-yl)phenol] | 0.84
Oc1c(Cl)cc(-c2cnc(COc3cccc(Cl)c3Cl)nn2)cc1Cl [Compound 37, 2,6-dichloro-4-(3-((2,3-dichlorophenoxy)methyl)-1,2,4-triazin-6-yl)phenol] | 8.61
Oc1c(Cl)cc(-c2cnc(OCCNc3ccccc3)nn2)cc1Cl [Compound 125, 2,6-dichloro-4-(3-(2-(phenylamino)ethoxy)-1,2,4-triazin-6-yl)phenol] | 25.8
Oc1c(Br)cc(-c2cnc(OCc3cccc4ccccc34)nn2)cc1Br [Compound 13, 2,6-dibromo-4-(3-(naphthalen-1-ylmethoxy)-1,2,4-triazin-6-yl)phenol] | 0.88
Oc1c(Cl)cc(-c2cnc(OCc3cccc(Cl)c3Cl)nn2)cc1Cl [Compound 114, 2,6-dichloro-4-(3-(2,3-dichlorobenzyloxy)-1,2,4-triazin-6-yl)phenol] | 3.36
Oc1c(Br)cc(-c2cnc(OCc3ccc4ccccc4c3)nn2)cc1Br [Compound 8, 2,6-dibromo-4-(3-(naphthalen-2-ylmethoxy)-1,2,4-triazin-6-yl)phenol] | 0.72
O=S1(=O)CCN(Cc2ccc(COc3ncc(-c4cc(Cl)c(O)c(Cl)c4)nn3)cc2)CC1 [Compound 136, formate salt] | 18.3
CN(C)c1ccccc1COc1ncc(-c2cc(Cl)c(O)c(Cl)c2)nn1 [Compound 140, 2,6-dichloro-4-(3-(2-(dimethylamino)benzyloxy)-1,2,4-triazin-6-yl)phenol] | 19.4
CC(C)(C)c1ccc(CCOc2ncc(-c3cc(Br)c(O)c(Br)c3)nn2)cc1 [Compound 93, 2,6-dibromo-4-(3-(4-tert-butylphenethoxy)-1,2,4-triazin-6-yl)phenol] | 0.64
Oc1c(Br)cc(-c2cnc(OCc3ccc(F)cc3Cl)nn2)cc1Br [Compound 9, 2,6-dibromo-4-(3-(2-chloro-4-fluorobenzyloxy)-1,2,4-triazin-6-yl)phenol] | 0.77
CC(C)(c1ccccc1)c1ccc(OCc2ncc(-c3cc(Br)c(O)c(Br)c3)nn2)cc1 [Compound 35, 2,6-dibromo-4-(3-((4-(2-phenylpropan-2-yl)phenoxy)methyl)-1,2,4-triazin-6-yl)phenol] | 7.31

Continued, values first:

IC50 [µM] | Structure (SMILES)
2.43 | Cc1cncc(Oc2cccc(CN(C)Cc3ccc(COc4ncc(-c5cc(Cl)c(O)c(Cl)c5)nn4)cc3)c2)n1 [Compound 203, 2,6-dichloro-4-(3-(4-((methyl(3-(6-methylpyrazin-2-yloxy)benzyl)amino)methyl)benzyloxy)-1,2,4-triazin-6-yl)phenol]
4.18 | CN(Cc1ccc(COc2ncc(-c3cc(Cl)c(O)c(Cl)c3)nn2)cc1)Cc1cccc(-c2ncccn2)c1 [Compound 205, 2,6-dichloro-4-(3-(4-((methyl(3-(pyrimidin-2-yl)benzyl)amino)methyl)benzyl-oxy)-1,2,4-triazin-6-yl)phenol]
19.8 | OCCN(Cc1ccc(COc2ncc(-c3cc(Cl)c(O)c(Cl)c3)nn2)cc1)Cc1cccnc1 [Compound 191, 2,6-dichloro-4-(3-(4-(((2-hydroxyethyl)(pyridin-3-ylmethyl)amino)methyl)benzyl-oxy)-1,2,4-triazin-6-yl)phenol]
3.8 | O=C(c1ccccc1)N1CCN(Cc2ccc(COc3ncc(-c4cc(Cl)c(O)c(Cl)c4)nn3)cc2)CC1 [Compound 218, (4-(4-((6-(3,5-dichloro-4-hydroxyphenyl)-1,2,4-triazin-3-yloxy)methyl)benzyl)piperazin-1-yl)(phenyl)methanone]
3.08 | Oc1c(Cl)cc(-c2cnc(OCc3ccc(CN4CCc5ccccc5C4)cc3)nn2)cc1Cl [Compound 166]
2.99 | CN(Cc1ccc(COc2ncc(-c3cc(Cl)c(O)c(Cl)c3)nn2)cc1)Cc1ccc(-c2cncnc2)cc1 [Compound 207, 2,6-dichloro-4-(3-(4-((methyl(4-(pyrimidin-5-yl)benzyl)amino)methyl)benzyl-oxy)-1,2,4-triazin-6-yl)phenol]
3.92 | Oc1c(Cl)cc(-c2cnc(OCc3ccc(CN4CCc5ccccc5C4c4ccncc4)cc3)nn2)cc1Cl (stereo not drawn) [Compound 193]
3.97 | Oc1c(Cl)cc(-c2cnc(OCc3ccc(F)cc3F)nn2)cc1Cl [Compound 148, 2,6-dichloro-4-(3-(2,4-difluorobenzyloxy)-1,2,4-triazin-6-yl)phenol]
18.9 | Oc1c(Cl)cc(-c2cnc(OCc3ccc(CNC(CN4CCCC4)c4ccccc4)cc3)nn2)cc1Cl (stereo not drawn) [Compound 194, 2,6-dichloro-4-(3-(4-((1-phenyl2-(pyrrolidin-1-yl)ethylamino)methyl)benzyloxy)-1,2,4-triazin-6-yl)phenol]
7.47 | CN1CCN(CC(NCc2ccc(COc3ncc(-c4cc(Cl)c(O)c(Cl)c4)nn3)cc2)c2ccccc2)CC1 (stereo not drawn) [Compound 195, 2,6-dichloro-4-(3-(4-((2-(4-methylpiperazin-1-yl)-1-phenylethylamino)methyl)benzyloxy)-1,2,4-triazin-6-yl)phenol]
2.81 | CN(Cc1ccc(COc2ncc(-c3cc(Cl)c(O)c(Cl)c3)nn2)cc1)Cc1cncc(Br)c1 [Compound 170, 4-(3-(4-((((5-bromopyridin-3-yl)methyl)(methyl)amino)methyl)benzyloxy)-1,2,4-triazin-6-yl)-2,6-dichlorophenol]
3.9 | Oc1c(Cl)cc(-c2cnc(OCc3ccc(CNCc4cccc5ccccc45)cc3)nn2)cc1Cl [Compound 149, 2,6-Dichloro-4-(3-(4-((naphthalen-1-ylmethylamino)methyl)benzyloxy)-1,2,4-triazin-6-yl)phenol]
13.9 | Oc1c(Cl)cc(-c2cnc(OCc3ccc(CN4CCC(Cc5ccccc5)CC4)cc3)nn2)cc1Cl [Compound 168, 4-(3-(4-((4-benzylpiperidin-1-yl)methyl)benzyloxy)-1,2,4-triazin-6-yl)-2,6-dichlorophenol]
4.72 | CN(Cc1ccc(COc2ncc(-c3cc(Cl)c(O)c(Cl)c3)nn2)cc1)Cc1ccc2ncccc2c1 [Compound 189, 2,6-dichloro-4-(3-(4-((methyl(quinolin-6-ylmethyl)amino)methyl)benzyl-oxy)-1,2,4-triazin-6-yl)phenol]
